The record followed here is PubChem BioAssay AID1996.

Converted amounts (≈) assume the structure as drawn.

For the series the following is noted: buffer; pH 7.4; 200.0 µM.
As to `CCc1ccc2[nH]c(C(=O)Nc3ccc(C)c(F)c3)cc2c1`, the kinetic solubility (as a rule, the concentration staying in solution when a stock, usually in DMSO, is diluted into the medium) is 0.9 µg/mL (≈ 3.04 µM).
In turn, `O=C(Nc1ccc(N2CCCC2)cc1)c1cccc(Cl)c1` yielded a solubility (kinetic) below 0.3 µg/mL.
The same measure for `CC(=O)c1ccc(NC(=O)COC(=O)C2C3CC4OC(=O)C2C4C3)cc1` (stereo not given): above 53.6 µg/mL.
The same measure for `COCCN1C2=C(COC(C)(C)C2)C(=S)NC1c1ccccc1` (stereo not given): above 49.9 µg/mL.
The value for `CN1CCN(C(=O)c2cc3ccccc3cc2O)CC1` was above 40.5 µg/mL; that for `O=C(Nc1cccnc1)C12CC3CC(CC(C3)C1)C2` was above 38.5 µg/mL.
In the case of `CCN1C(=O)c2ccccc2Sc2ccc(C(=O)NC(C)C)cc21`, the solubility (kinetic) is 47.9 µg/mL (≈ 141 µM).
In turn, `FC(F)(F)c1ccnc(NCc2ccc(Cl)cc2)n1` came in with a kinetic solubility of 4.3 µg/mL (≈ 14.9 µM).
The value for `Cc1ccc(C)c(NC(=O)Cn2cc(C(=O)C3CC3)c3ccccc32)c1` was below 0.4 µg/mL; that for `CCOC(=O)Cc1csc(NC(=O)CCc2ccccc2)n1` was 41 µg/mL (≈ 129 µM).
The value for `COc1ccc(/C=C/C(=O)NC(CCSC)C(=O)O)cc1` (stereo not given) was above 46.4 µg/mL.
As for `O=C(NCCC1CCCC1)c1cccs1`, the solubility (kinetic) was above 33.5 µg/mL.
The same measure for `CCC1SC(=Nc2cccc(C)c2)NC1=O` (stereo not given): above 35.1 µg/mL; for `O=C1Nc2ccccc2C1c1ncc(C(F)(F)F)cc1Cl` (stereo not given): above 46.9 µg/mL.
The same measure for `O=C(Nc1ccc(OCc2ccccc2)cc1)c1cccs1`: below 0.7 µg/mL.
In turn, `Cc1ccccc1N1CC2=C(C1=O)C(c1ccccc1)NC(=O)N2C` (stereo not given) came in with a solubility (kinetic) of 0.5 µg/mL (≈ 1.5 µM).
The same measure for `Cc1nnc(SCC(=O)Nc2ccccc2)n(N)c1=O`: above 43.7 µg/mL; for `O=C(c1ccccc1Br)N1CCc2c([nH]c3ccccc23)C1`: 14.9 µg/mL (≈ 41.9 µM).
`O=S1(=O)CCN(Cc2csc(-c3cccs3)n2)CC1` yielded a solubility (kinetic) above 47.2 µg/mL.
The same measure for `NC(=O)c1ccc(NC(=O)CSC(=O)c2ccccc2)cc1`: 16.4 µg/mL (≈ 52.2 µM).
The value for `O=C(Cc1ccc(F)cc1)N1CCOCC1` was above 33.5 µg/mL; that for `Cc1cc(N2CC(C(=O)Nc3nccs3)CC2=O)ccc1C(C)C` (stereo not given) was 1.4 µg/mL (≈ 4.08 µM).
The value for `Cc1cc[n+](Cc2ccc([N+](=O)[O-])cc2)cc1.[Br-]` was above 46.4 µg/mL; that for `Cc1ccc(C(=O)NC(C)C2CCCO2)o1` (stereo not given) was above 33.5 µg/mL.
Compound `COc1ccccc1/C=C/C(=O)NCCc1ccccn1` returned a kinetic solubility of 41.9 µg/mL (≈ 148 µM).
The value for `Cc1cc(C)c(S(=O)(=O)Nc2ncccc2C)c(C)c1` was 2.1 µg/mL (≈ 7.23 µM); that for `CCOC(=O)C1CCN(Cc2cc(Cl)c3ccccc3c2O)CC1` was 6.2 µg/mL (≈ 17.8 µM); that for `O=C(CN1C(=O)CCSc2ccccc21)NC1CCCCC1` was 43.3 µg/mL (≈ 136 µM).
In turn, `O=C(NCCc1ccc(C(F)(F)F)cc1)c1ccc(Cl)nc1` displayed a kinetic solubility of 6.6 µg/mL (≈ 20.1 µM).
The value for `c1cncc(C2Nc3cccc4cccc(c34)N2)c1` was above 37.1 µg/mL.
`CC1(c2cccc(Br)c2)NC(=O)NC1=O` (stereo not given) yielded a kinetic solubility above 40.4 µg/mL.
The value for `O=C(NCc1ccccc1)N1CCOCC1` was above 33 µg/mL.
The same measure for `CCCC1C(=O)Nc2ccccc2N1C(=O)c1cccc(C)c1` (stereo not given): above 46.3 µg/mL; for `O=C(NCCCN1CCOCC1)c1cc(-c2ccco2)nc2ccccc12`: 49.6 µg/mL (≈ 136 µM).
Turning to `COc1ccc(OCC(=O)NCCNC(=O)c2cccnc2)cc1`, the kinetic solubility turned out to be 47.8 µg/mL (≈ 145 µM).
Compound `COc1cc(NC(=O)Nc2cc(C)on2)cc(OC)c1OC` gave a kinetic solubility of 37.8 µg/mL (≈ 123 µM).
The value for `Cc1ccc(SCCSc2nc(N)cc(=O)[nH]2)cc1` was 6.7 µg/mL (≈ 22.8 µM).
`O=C(O)CCC(=O)N1CCc2c([nH]c3ccccc23)C1C(F)(F)F` (stereo not given) came in with a kinetic solubility above 51 µg/mL.
Compound `COC(=O)c1sccc1NC(=O)Nc1ccccc1C` gave a kinetic solubility of 23.6 µg/mL (≈ 81.3 µM).
`NS(=O)(=O)c1ccc(CNc2ccc3ccccc3n2)cc1` yielded a kinetic solubility of 12.8 µg/mL (≈ 40.8 µM).
In the case of `O=C(COC(=O)COc1ccccc1F)Nc1cccc(S(=O)(=O)N2CCCCC2)c1`, the solubility (kinetic) came out at 47.8 µg/mL (≈ 106 µM).
The compound `NS(=O)(=O)c1ccc(CNC(=S)NC2CCCCC2)cc1` displayed a kinetic solubility of 47.9 µg/mL (≈ 146 µM).
The value for `CC(NC(=O)c1cccs1)c1ccc(Cl)cc1` (stereo not given) was 9.8 µg/mL (≈ 36.9 µM); that for `C[N+](C)(C)CC#CCOC(=O)Nc1cccc(Cl)c1.[Cl-]` was above 47.6 µg/mL; that for `CCOC(=O)Cc1csc(NC(=O)c2c(C)noc2C)n1` was above 46.4 µg/mL.
In turn, `O=C(NC1CCS(=O)(=O)C1)c1cccnc1` (stereo not given) gave a solubility (kinetic) of 26.1 µg/mL (≈ 109 µM).
`CCOc1ccccc1CNC(=O)CCc1cn(C)c2ccccc12` gave a solubility (kinetic) of 3.1 µg/mL (≈ 9.21 µM).
The same measure for `CCSC1=NN2CCS(=O)(=O)N=C2S1`: above 37.7 µg/mL; for `Nc1[nH]c(=O)nc(Nc2ccccc2)c1N=O`: above 34.7 µg/mL.
The value for `CCOc1ccc(NC(=O)CN2C(=O)C(C)SC(C)C2=O)cc1` (stereo not given) was 34.8 µg/mL (≈ 103 µM).
`CCOC(=O)C1CCN(CC(=O)c2ccc(O)c(C)c2O)CC1` registered a solubility (kinetic) of 46.3 µg/mL (≈ 144 µM).
The compound `COc1cc(C(=O)COC(=O)c2ccncc2)cc(OC)c1OC` showed a kinetic solubility above 49.7 µg/mL.
The value for `Cc1noc(C)c1C(=O)NC(Cc1c[nH]c2ccccc12)C(=O)O` (stereo not given) was above 49.1 µg/mL; that for `CCOC(=O)c1cc(NC(=O)CCC(=O)O)ccc1N1CCCCC1` was 51.3 µg/mL (≈ 147 µM); that for `CC(=O)N1c2ccccc2C(C)=CC1(C)C` was 8.1 µg/mL (≈ 37.6 µM).
For `COc1ccccc1Oc1ccccc1[N+](=O)[O-]`, the kinetic solubility is 25.1 µg/mL (≈ 102 µM).
The value for `CCc1ccc(N/C(=N/c2nc(C)cc(C)n2)NC(C)=O)cc1` was 9.2 µg/mL (≈ 29.5 µM); that for `O=C(Nc1nccs1)c1cc([N+](=O)[O-])ccc1Cl` was 3.7 µg/mL (≈ 13 µM).
The value for `Cc1cc(F)ccc1NS(=O)(=O)c1cccc2nsnc12` was 44.2 µg/mL (≈ 137 µM).
The same measure for `N#C/C(=C\c1cn(CC(=O)O)c2ccccc12)C(=O)NCc1ccccc1`: 48.9 µg/mL (≈ 136 µM).
For the compound `CC1CCCC(NC(=O)COC(=O)COc2ccc(Br)cc2)C1C` (stereo not given), the solubility (kinetic) worked out at 11.6 µg/mL (≈ 29.1 µM).
For `COc1cccc(NC(=S)NC(=O)c2cccnc2)c1`, the kinetic solubility was 40 µg/mL (≈ 139 µM).
The same measure for `Cc1ccc2cc([N+](=O)[O-])ccc2n1`: 20.5 µg/mL (≈ 109 µM); for `COc1ccc(C(=O)NCC(=O)OCC(=O)NC2CCCCCC2)cc1`: above 54.4 µg/mL.
The value for `O=C(c1ccc(Cl)cc1)n1cnc2ccccc21` was above 38.5 µg/mL; that for `Cc1cc(C)cc(C(=O)N2CCC3(CC2)NCCc2[nH]cnc23)c1` was above 48.7 µg/mL; that for `N#Cc1ccc(OCC(=O)NC2CCCCCC2)cc1` was above 40.9 µg/mL.
The value for `O=C(CSc1ncccn1)NCc1cccc(Cl)c1` was above 44.1 µg/mL; that for `CC1CCN(C(=O)Cn2cc(C(F)(F)F)ccc2=O)c2ccccc2S1` (stereo not given) was above 57.4 µg/mL; that for `COC(=O)/C=C/c1cnc2ccccc2c1` was above 32 µg/mL.
The compound `CC(=O)c1cc(CN2CCN(CC=C(C)C)C(CCO)C2)cs1` (stereo not given) returned a kinetic solubility above 50.5 µg/mL.
For `COc1ccc(Cl)cc1NC(=O)CN1CCCCCC1`, the kinetic solubility was 2.1 µg/mL (≈ 7.08 µM).
`O=c1oc2ccccc2n1Cc1cccc(F)c1` yielded a kinetic solubility of 8.3 µg/mL (≈ 34.1 µM).
The same measure for `Fc1ccccc1-c1nc2ccccc2[nH]1`: above 31.8 µg/mL; for `Brc1cccc(C2Nc3cccc4cccc(c34)N2)c1`: below 0.3 µg/mL; for `Cc1ccc(S(=O)(=O)Nc2c(C)nn(C)c2C)cc1C`: above 44 µg/mL.
With `Cl.O=C(CCN1CCc2ccccc2C1)Nc1ccc(F)c(F)c1`, the solubility (kinetic) worked out at 37.9 µg/mL.
The same measure for `COC(=O)Cn1cnc2scc(-c3ccc(C)cc3)c2c1=O`: above 47.2 µg/mL; for `Cc1ccc(C(=O)NCC(=O)N2CCN(c3ccccc3)CC2)cc1`: 4.4 µg/mL (≈ 13 µM); for `CC(C)c1ccc(OCC(=O)NC(C)c2ccccc2)cc1` (stereo not given): 16.5 µg/mL (≈ 55.5 µM).
`Cc1nn(CCCC(=O)Nc2ccccn2)c(C)c1[N+](=O)[O-]` showed a solubility (kinetic) above 45.5 µg/mL.
The same measure for `COc1ccc(NC(=O)Nc2cccc3ccccc23)c(OC)c1`: 0.5 µg/mL (≈ 1.55 µM); for `CC(C)c1ccc(Nc2nc(Cl)nc(NCc3ccco3)n2)cc1`: 0.6 µg/mL (≈ 1.75 µM); for `N#Cc1nc(-c2ccc([N+](=O)[O-])cc2)oc1N1CCCCC1`: 1.3 µg/mL (≈ 4.36 µM).
The same measure for `COc1cc2c(cc1OC)/C(=C/C(=O)c1ccc(F)cc1)NCC2`: 25.7 µg/mL (≈ 78.5 µM).
For the compound `C=CCn1cccc(C(=O)Nc2ccc(OC)c(Cl)c2)c1=O`, the solubility (kinetic) amounted to 1.5 µg/mL (≈ 4.71 µM).
With `COc1ccc(NC(=O)CCOc2cc(C)ccc2C)cc1S(=O)(=O)N1CCCCC1`, the kinetic solubility came out at 7.9 µg/mL (≈ 17.7 µM).
With `CC[C@H](C)[C@H](NC(N)=O)C(=O)NCCc1ccc(Cl)cc1`, the solubility (kinetic) is above 46.8 µg/mL.
The same measure for `CN1C=CC=C/C1=C1/N=C(c2ccccc2)OC1=O`: above 37.8 µg/mL.
The same measure for `Cc1cc(NC(=O)C2CC2)ccc1NC(=O)c1cccs1`: 13.1 µg/mL (≈ 43.6 µM); for `COC(=O)Cn1ncc(N(C)Cc2ccccc2)c(Cl)c1=O`: above 48.3 µg/mL; for `C=CCn1c(NC(=O)c2ccccc2)nc2ccccc21`: 0.8 µg/mL (≈ 2.88 µM).
`O=C(Nc1cc(Cl)cc(Cl)c1)c1coc(=O)c(Br)c1`: the kinetic solubility was determined as 5.1 µg/mL (≈ 14 µM).
The compound `O=C(Nc1ccccc1O)c1ccc(NC(=O)C2CC2)cc1` yielded a kinetic solubility of 1.9 µg/mL (≈ 6.41 µM).
The same measure for `CC(=O)Nc1ccc(C(=O)OCC(=O)N2CC3(C)CC2CC(C)(C)C3)cc1` (stereo not given): 15.6 µg/mL (≈ 41.9 µM); for `O=C(Nc1ccc(C(=O)Nc2ccccc2Cl)cc1)c1cccnc1`: 2.3 µg/mL (≈ 6.54 µM).
The same measure for `CC1CCN(C(=O)CN2C(=O)NC(C)(c3ccc4ccccc4c3)C2=O)CC1` (stereo not given): 5.9 µg/mL (≈ 15.5 µM); for `CCCN1CCN(C(=O)c2c(Cl)cnn2C)CC1`: above 40.6 µg/mL.
The value for `CCOc1ccc(NC(=S)NCc2nc3ccccc3[nH]2)cc1` was 46.6 µg/mL (≈ 143 µM); that for `CNC(=O)COC(=O)c1ccccc1Nc1ccccc1` was 2.6 µg/mL (≈ 9.14 µM); that for `Cc1cc(C)cc(NC(=O)C2CCCN(c3ncccn3)C2)c1` (stereo not given) was 0.5 µg/mL (≈ 1.61 µM).
As for `CC1CN(C(=O)c2ccccc2NS(=O)(=O)c2ccc(Cl)cc2)CC(C)O1` (stereo not given), the kinetic solubility was above 61.3 µg/mL.
The same measure for `COC(=O)NCC(c1ccco1)N1CCN(c2ccc(OC)cc2)CC1` (stereo not given): above 53.9 µg/mL; for `Cc1ccc(C(=O)NCCCNC(=O)c2cccnc2)cc1`: above 44.6 µg/mL; for `Cc1ccc(S(=O)(=O)NCCCn2ccnc2)cc1C(=O)NC(C)C`: above 54.7 µg/mL.
